From ChEMBL document CHEMBL1125546, “Novel 5-HT3 antagonists. Isoquinolinones and 3-aryl-2-pyridones” (J Med Chem, 1992)

What was measured:
[1] = Compound was evaluated for protection against cisplatin-induced emesis by measuring number of emetic episodes in ferrets when administered intravenously at 0.03 mg/kg.; type: functional, Mustela putorius furo; conditions: route intravenous
[2] = Compound was evaluated for protection against cisplatin-induced emesis by measuring number of emetic episodes in ferrets when administered intravenously at 0.1 mg/kg.; type: functional, Mustela putorius furo; conditions: route intravenous
[3] = Compound was evaluated for protection against cisplatin-induced emesis by measuring number of retches in ferrets when administered intravenously at 0.03 mg/kg.; type: functional, Mustela putorius furo; conditions: route intravenous
[4] = Compound was evaluated for protection against cisplatin-induced emesis by measuring number of retches in ferrets when administered intravenously at 0.1 mg/kg.; type: functional, Mustela putorius furo; conditions: route intravenous
Rattus norvegicus = experiment: Inhibitory activity against Bezold-jarisch functional assay, inducing a transient bradycardia upon intravenous administration of 5-hydroxytryptamine-(10 ug/kg) in anesthetized rats.; conditions: read-out: ID50 (the source's name)
[5] = Compound was evaluated for protection against cisplatin-induced emesis by measuring number of retches in ferrets when administered intravenously at 0.3 mg/kg.; type: functional, Mustela putorius furo; conditions: route intravenous
[6] = Compound was evaluated for protection against cisplatin-induced emesis by measuring number of retches in ferrets when administered perorally at 0.1 mg/kg; type: functional, Mustela putorius furo; conditions: route oral
[7] = Compound was evaluated for protection against cisplatin-induced emesis by measuring number of emetic episodes in ferrets when administered perorally at 0.1 mg/kg; type: functional, Mustela putorius furo; conditions: route oral
[8] = Compound was evaluated for protection against cisplatin-induced emesis by measuring number of retches in ferrets when administered perorally at 0.3 mg/kg.; type: functional, Mustela putorius furo; conditions: route oral
[9] = Compound was evaluated for protection against cisplatin-induced emesis by measuring number of emetic episodes in ferrets when administered intravenously at 0.01 mg/kg; type: functional, Mustela putorius furo; conditions: route intravenous
[10] = Compound was evaluated for protection against cisplatin-induced emesis by measuring number of retches in ferrets when administered intravenously at 0.1 mg/kg; type: functional, Mustela putorius furo; conditions: route intravenous
[11] = Compound was evaluated for protection against cisplatin-induced emesis by measuring number of emetic episodes in ferrets when administered perorally at 0.3 mg/kg; type: functional, Mustela putorius furo; conditions: route oral
[12] = Compound was evaluated for protection against cisplatin-induced emesis by measuring number of retches in ferrets when administered intravenously at 0.01 mg/kg; type: functional, Mustela putorius furo; conditions: route intravenous
[13] = Compound was evaluated for protection against cisplatin-induced emesis by measuring number of emetic episodes in ferrets when administered perorally at 0.03 mg/kg; type: functional, Mustela putorius furo; conditions: route oral
[14] = Compound was evaluated for protection against cisplatin-induced emesis by measuring number of retches in ferrets when administered perorally at 0.03 mg/kg; type: functional, Mustela putorius furo; conditions: route oral
[15] = Compound was evaluated for protection against cisplatin-induced emesis by measuring number of emetic episodes in ferrets when administered intravenously at 0.3 mg/kg; type: functional, Mustela putorius furo; conditions: route intravenous

Compound | ED50 (Rattus norvegicus) [µg/kg] | further results
Cc1[nH]cnc1Cn1cccc(-c2cccs2)c1=O | 0.27 | No. of emetic episodes [1]: 6; No. of emetic episodes [2]: 1.3; No. of retches [3]: 90.8; No. of retches [4]: 22
Cc1cc2c(=O)n(Cc3[nH]cnc3C)ccc2cc1N | 4.1 | –
CCn1c2ccccc2c2c3c(=O)n(Cc4[nH]cnc4C)ccc3ccc21 | 43.9 | –
Cc1[nH]cnc1Cn1cccc(-c2cccc([N+](=O)[O-])c2)c1=O | > 100 | –
Cc1[nH]cnc1Cn1cccc(-c2cc3ccccc3s2)c1=O | > 100 | –
Cc1[nH]cnc1Cn1cccc(-c2ccc(Br)s2)c1=O | 7.49 | –
Cc1ccsc1-c1cccn(Cc2[nH]cnc2C)c1=O | 0.44 | –
COc1ccccc1-c1cccn(Cc2[nH]cnc2C)c1=O | 18.2 | –
Cc1[nH]cnc1Cn1cccc(-c2ccccc2)c1=O | 12 | –
Cc1cccc(-c2cccn(Cc3[nH]cnc3C)c2=O)c1 | 9.03 | –
Cc1[nH]cnc1Cn1ccc2cc(N)c(Cl)cc2c1=O | 0.36 | No. of retches [5]: 18.8; No. of retches [6]: 18.6; No. of emetic episodes [7]: 1.2; No. of retches [8]: 3.5; No. of emetic episodes [9]: 10; No. of retches [10]: 26.5; No. of emetic episodes [1]: 4.8; No. of emetic episodes [11]: 0.2; No. of emetic episodes [2]: 1.3; No. of retches [12]: 116.8; No. of emetic episodes [13]: 8.8; No. of retches [14]: 142.2; No. of retches [3]: 71; No. of emetic episodes [15]: 0.8
Cc1[nH]cnc1Cn1cccc(-c2ccco2)c1=O | 0.9 | –
COc1ccc2c(ccc3ccn(Cc4[nH]cnc4C)c(=O)c32)c1 | 56.6 | –
Cc1[nH]cnc1Cn1ccc2c(O)nc3ccccc3c2c1=O | 0.05 | –
Cc1[nH]cnc1Cn1cnc2ccccc2c1=O | > 100 | –
Cc1[nH]cnc1Cn1ccc2c(O)cc3ccccc3c2c1=O | 0.62 | –
COc1cc(N)c(Cl)cc1C(=O)NCc1[nH]cnc1C | 3.53 | –
Cc1nc[nH]c1Cn1ccc2c(C(=O)N(C)C)cc3ccccc3c2c1=O | 7.46 | –
Cc1[nH]cnc1Cn1ccc2ccccc2c1=O | 38.7 | –
Cc1[nH]cnc1Cn1cccc(-c2cccc(Cl)c2)c1=O | 10 | –
Cc1[nH]cnc1Cn1ccc2ccc(Cl)cc2c1=O | 25.5 | –
Cc1[nH]cnc1Cn1ccc2c3ccccc3c3ccccc3c2c1=O | 6.95 | –
Cc1[nH]cnc1Cn1ccc2nc3ccccc3cc2c1=O | 19.5 | –
Cc1[nH]cnc1Cn1ccc2c(c1=O)-c1ccsc1CC2 | 2.78 | –
COc1cccc(-c2cccn(Cc3[nH]cnc3C)c2=O)c1 | 26.7 | –
Cc1[nH]cnc1Cn1ccc2cccc(N)c2c1=O | 53.1 | –
